US11053170B2, “Liquid urease inhibitor formulations” (YARA INTERNATIONAL ASA, priority 2016, dated 2021)

Experiments:
[1] = system: rat; conditions: cited from earlier work
[2] = system: urease; conditions: on urea; Rheinland soil (pH 6.5) and Palencia soil (pH 7.5); 25° C., 14 days
Protocol: Erlenmeyer flasks were filled with 300 g air-dried, arable topsoil, irrigated to a desired % of its WHC (Water Holding Capacity), incubated for 6 days prior to the application of the fertilizers. Fertilizers (2.5-3.15 mm granule size) at a concentration of 100 mg N (Nitrogen)/flask were applied over the soil surface. Boric acid traps were installed to catch volatile ammonia from the air above the topsoil, and the Erlenmeyer flasks were installed in a Phytotron chamber at 25° C. at windy but not dry conditions.

[3] = Stability of nBTPT on urea granules (coated); type: physicochemical; conditions: 500 ppm, bagged, room temperature
Protocol: In a next step, the nBTPT material was slowly added. A residence time of 10 minutes was applied and the rotating speed of the drum was consequently the same in each experiment. Larger scale experiments with amounts up to 40 kg of fertilizer material were performed in a concrete mixer.
The samples were stored under several conditions, dependent on the type of samples: • Bagged at room temperature (20° C.) or in a Nissen hut (an unconditioned bulk storage hall) • Open to air in a Nissen hut
Typically, a day/night cycle is generated in the Nissen hut, with temperature fluctuations between 0 to 42° C. and fluctuations of relative humidity between 20 and 90%, which can be compared with real life storage in silos.

| SMILES | toxicity oral rat LD50 [1] | urease inhibitory activity and volatilization control (cumulated volatile ammonia losses) [2] | nBTPT degradation in 155 days [3] |
| --- | --- | --- | --- |
| CN1CCCC1 [NMP, N-methylpyrrolidine] | 3914 mg/kg |  |  |
| CCCCNP(N)(N)=S [nBTPT, N-(n-butyl) thiophosphoric triamide] |  | no statistically significant difference | about 75% |
